Like-named read-outs stand apart in the source and are kept apart here.
Molecular target: human cannabinoid CB2 receptor (Homo sapiens, UniProt P34972)
Experiment: Cannabinoid CB2 receptor agonist activity (yeast reporter assay, FDGlu fluorescence)
Assay type: cell-based
Conditions: for Emax: read-out: efficacy value (Emax relative to HU210) at the cloned human cannabinoid CB2 receptor
Protocol: Determination of Cannabinoid CB2 Receptor Agonist Activity
The cannabinoid CB2 receptor agonist activity of the compounds of formula (I)-(IV) was determined in accordance with the following experimental method.
Yeast (Saccharomyces cerevisiae) cells expressing the human cannabinoid CB2 receptor were generated by integration of an expression cassette into the ura3 chromosomal locus of yeast strain MMY23. This cassette consisted of DNA sequence encoding the human CB2 receptor flanked by the yeast GPD promoter to the 5′ end of CB2 and a yeast transcriptional terminator sequence to the 3′ end of CB2. MMY23 expresses a yeast/mammalian chimeric G-protein alpha subunit in which the C-terminal 5 amino acids of Gpa1 are replaced with the C-terminal 5 amino acids of human Gαi3 (as described in Brown et al. (2000), Yeast 16:11-22). Cells were grown at 30° C. in liquid Synthetic Complete (SC) yeast media (Guthrie and Fink (1991), Methods in Enzymology, Vol. 194) lacking uracil, tryptophan, adenine and leucine to late logarithmic phase (approximately 6 OD600/ml).
Agonists were prepared as 10 mM stocks in DMSO. […] Agonist solutions in DMSO (1% final assay volume) were transferred into black, clear bottom, microtitre plates from NUNC (96- or 384-well). Cells were suspended at a density of 0.2 OD600/ml in SC media lacking histidine, uracil, tryptophan, adenine and leucine and supplemented with 10 mM 3-aminotriazole, 0.1M sodium phosphate pH 7.0, and […] fluorescein di-β-D-glucopyranoside (FDGlu). This mixture (50 ul per well for 384-well plates, 200 ul per well for 96-well plates) was added to agonist in the assay plates (Multidrop 384, Labsystems). After incubation at 30° C. for 24 hours, fluorescence resulting from degradation of FDGlu to fluorescein due to exoglucanase, an endogenous yeast enzyme produced during agonist-stimulated cell growth, was determined using a Spectrofluor microtitre plate reader (Tecan; excitation wavelength: 485 nm; emission wavelength: 535 nm). Fluorescence was plotted against compound concentration and iteratively curve fitted using a four parameter fit to generate a concentration effect value. Efficacy (Emax) was calculated from the equation
where Max[compound X] and Min[compound X] are the fitted maximum and minimum respectively from the concentration effect curve for compound X, and Max[HU210] and Min[HU210] are the fitted maximum and minimum respectively from the concentration effect curve for (6aR,10aR)-3-(1,1′-Dimethylheptyl)-6a,7,10,10a-tetrahydro-1-hydroxy-6,6-dimethyl-6H-dibenzo[b,d]pyran-9-methanol (HU210; available from Tocris). Equieffective molar ratio (EMR) values were calculated from the equation
Where EC50 [compound X] is the EC50 of compound X and EC50 [HU210] is the EC50 of HU210.

[1] = EC50 value at the cloned human cannabinoid CB2 receptor

human cannabinoid CB2 receptor, sequence (P34972 whole entry): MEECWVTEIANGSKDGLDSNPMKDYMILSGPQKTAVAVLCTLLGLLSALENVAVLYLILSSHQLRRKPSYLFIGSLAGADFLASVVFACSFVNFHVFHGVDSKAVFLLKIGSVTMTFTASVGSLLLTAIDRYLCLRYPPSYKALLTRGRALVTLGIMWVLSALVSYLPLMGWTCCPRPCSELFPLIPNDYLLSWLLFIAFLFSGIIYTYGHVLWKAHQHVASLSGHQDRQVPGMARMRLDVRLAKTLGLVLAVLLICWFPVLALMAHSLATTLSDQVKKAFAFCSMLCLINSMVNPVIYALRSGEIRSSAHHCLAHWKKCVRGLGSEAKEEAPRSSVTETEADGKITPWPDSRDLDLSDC

EC50 (read-out: EC50 value at the cloned human cannabinoid CB2 receptor) [nM] | Compound | Emax [%] | EC50 [1] [nM]
– | O=C(NC[C@H]1CCCO1)c1cnc(Nc2cccc(F)c2)nc1C(F)(F)F [Example 73, 2-(3-Fluoro-phenylamino)-4-trifluoromethyl-pyrimidine-5-carboxylic acid [(R)-1-(tetrahydro-furan-2-yl)methyl]-amide] | > 50 | –
– | O=C(NC1CCCC1)c1cnc(Nc2ccc(Cl)c(Cl)c2)nc1C(F)(F)F [Example 74, 3,4-Dichlorophenylamino-4-trifluoromethyl-pyrimidine-5-carboxylic acid cyclopentylamide] | > 50 | 300 to 1000
– | O=C(NC1CCCC1)c1cnc(Nc2cc(Cl)cc(Cl)c2)nc1C(F)(F)F [Example 75, 3,5-Dichlorophenylamino-4-trifluoromethyl-pyrimidine-5-carboxylic acid cyclopentylamide] | > 50 | 300 to 1000
– | COc1cccc(Nc2ncc(C(=O)NC3CCCC3)c(C(F)(F)F)n2)c1 [Example 76, 3-Methoxyphenylamino-4-trifluoromethyl-pyrimidine-5-carboxylic acid cyclopentylamide] | > 50 | 300 to 1000
– | O=C(NC1CCCC1)c1cnc(Nc2cccc(Cl)c2Cl)nc1C(F)(F)F [Example 77, 2,3-Dichlorophenylamino-4-trifluoromethyl-pyrimidine-5-carboxylic acid cyclopentylamide] | > 50 | 300 to 1000
– | O=C(c1cnc(Nc2cccc(F)c2)nc1C(F)(F)F)N1CCCCC1 [Example 78, 1-[2-(3-fluorophenylamino)-4-trifluoromethyl-pyrimidin-5-yl]-1-piperidin-1-yl-methanone] | > 50 | 300 to 1000
– | CS(=O)(=O)N1CCN(C(=O)c2cnc(Nc3cccc(Cl)c3)nc2C(F)(F)F)CC1 [Example 79, 1-[2-(3-chlorophenylamino)-4-trifluoromethyl-pyrimidin-5-yl]-1-(4-methanesulfonyl-piperazin-1-yl)-methanone] | > 50 | 300 to 1000
– | O=C(NC[C@H]1CCCO1)c1cnc(Nc2cccc(Br)c2)nc1C(F)(F)F [Example 80, 2-(3-bromophenylamino)-4-trifluoromethyl-pyrimidine-5-carboxylic acid [R-1-(tetrahydrofuran-2-yl)methyl]-amide] | > 50 | 300 to 1000
– | O=C(NC1CCS(=O)(=O)CC1)c1cnc(Nc2cccc(Cl)c2Cl)nc1C(F)(F)F [Example 82, 2-(2,3-Dichlorophenylamino)-4-trifluoromethyl-pyrimidine-5-carboxylic acid (1,1-dioxo-tetrahydro-2H-thiopyran-4-yl)-amide] | > 50 | 300 to 1000
– | O=C(NCC1CC1)c1cnc(Nc2cccc(F)c2)nc1C(F)(F)F [Example 83, 2-(3-Fluoro-phenylamino)-4-trifluoromethyl-pyrimidine-5-carboxylic acid cyclopropylmethyl-amide] | > 50 | 300 to 1000
– | O=C(NCC1CC1)c1cnc(Nc2cccc(Cl)c2)nc1C(F)(F)F [Example 84, 2-(3-Chloro-phenylamino)-4-trifluoromethyl-pyrimidine-5-carboxylic acid cyclopropylmethyl-amide] | > 50 | 300 to 1000
– | O=C(c1cnc(Nc2cc(Cl)ccc2Cl)nc1C(F)(F)F)N1CCCCC1 [Example 85, 1-[2-(2,5-Dichloro-phenylamino)-4-tri-fluoromethyl-pyrimidin-5-yl]-1-piperidin-1-yl-methanone] | > 50 | 300 to 1000
– | O=C(NCC1(O)CCOCC1)c1cnc(Nc2cccc(Br)c2)nc1C(F)(F)F [Example 87, 2-(3-Bromophenyl-amino)-4-trifluoromethyl-pyrimidine-5-carboxylic acid (4-hydroxytetrahydropyran-4-ylmethyl)amide] | > 50 | 300 to 1000
– | O=C(NCC1CCCCC1)c1cnc(Nc2cc(C(F)(F)F)cc(C(F)(F)F)c2)nc1C(F)(F)F [Example 88, 2-(3,5-Bis-trifluoromethyl-phenylamino)-4-trifluoromethyl-pyrimidine-5-carboxylic acid cyclohexylmethyl-amide] | > 50 | 300 to 1000
– | N#Cc1cc(C#N)cc(Nc2ncc(C(=O)NCC3CCCCC3)c(C(F)(F)F)n2)c1 [Example 89, 2-(3,5-Dicyano-phenylamino)-4-trifluoromethyl-pyrimidine-5-carboxylic acid cyclohexylmethyl-amide] | > 50 | 300 to 1000
– | O=C(NCC1CCCCC1)c1cnc(Nc2cc(F)cc(C(F)(F)F)c2)nc1C(F)(F)F [Example 90, 2-(3-Fluoro-5-trifluoromethyl-phenylamino)-4-trifluoromethyl-pyrimidine-5-carboxylic acid cyclohexylmethyl-amide] | > 50 | 300 to 1000
– | O=C(NCC1CCCCC1)c1cnc(Nc2cc(Br)cc(C(F)(F)F)c2)nc1C(F)(F)F [Example 91, 2-(3-Bromo-5-trifluoromethyl-phenylamino)-4-trifluoromethyl-pyrimidine-5-carboxylic acid cyclohexylmethyl-amide] | > 50 | 300 to 1000
– | Cc1cccc(Nc2ncc(C(=O)NCC3CCCCC3)c(C(F)(F)F)n2)c1Cl [Example 92, 2-(2-Chloro-3-methyl-phenylamino)-4-trifluoromethyl-pyrimidine-5-carboxylic acid cyclohexylmethyl-amide] | > 50 | 300 to 1000
– | Cc1c(Cl)cccc1Nc1ncc(C(=O)NCC2CCCCC2)c(C(F)(F)F)n1 [Example 93, 2-(3-Chloro-2-methyl-phenylamino)-4-trifluoromethyl-pyrimidine-5-carboxylic acid cyclohexylmethyl-amide] | > 50 | 300 to 1000
– | Cc1cc(Cl)ccc1Nc1ncc(C(=O)NCC2CCCCC2)c(C(F)(F)F)n1 [Example 94, 2-(4-Chloro-2-methyl-phenylamino)-4-trifluoromethyl-pyrimidine-5-carboxylic acid cyclohexylmethyl-amide] | > 50 | 300 to 1000
– | Cc1cc(Cl)cc(C)c1Nc1ncc(C(=O)NCC2CCCCC2)c(C(F)(F)F)n1 [Example 95, 2-(4-Chloro-2,6-dimethyl-phenylamino)-4-trifluoromethyl-pyrimidine-5-carboxylic acid cyclohexylmethyl-amide] | > 50 | 300 to 1000
– | O=C(NCC1CCCC1)c1cnc(Nc2cc(F)cc(F)c2)nc1C(F)(F)F [Example 96, 2-(3,5-Difluoro-phenylamino)-4-trifluoromethyl-pyrimidine-5-carboxylic acid cyclopentylmethyl-amide] | > 50 | 300 to 1000
300 to 1000 | O=C(NCC1CCCC1)c1cnc(Nc2ccc(C(F)(F)F)c(F)c2)nc1C(F)(F)F [Example 97, 2-(4-Trifluoromethyl-3-fluorophenylamino)-4-trifluoromethyl-pyrimidine-5-carboxylic acid cyclopentylmethyl-amide] | – | –
– | O=C(NCC1CCOCC1)c1cnc(Nc2ccc(F)cc2F)nc1C(F)(F)F [Example 98, 2-(2,4-Difluorophenylamino)-4-trifluoromethyl-pyrimidine-5-carboxylic acid (tetrahydro-pyran-4-ylmethyl)-amide] | > 50 | 300 to 1000
